Measured values taken from patent US20200022963A1, “PHARMACEUTICAL COMPOSITION COMPRISING BETAHISTINE” (Otolanum AG, priority 2017, published 2020).

How the values were obtained:
[1] = Relative bioavailability of intranasal versus oral betahistine in humans, Example 6; format: in vivo; details: human
Procedure: (Journal of Psychopharmacology, 2016, Vol. 30(3) 237-241). In brief, in this study, forty-eight healthy women were recruited and randomized to receive per os (i.e. orally) either betahistine 144 mg/day (48 mg t.i.d.) or matching placebo for 4 weeks. […] Study medication (betahistine or matching placebo) was administered at least 30 minutes prior to eating. On Day 8, blood samples of 6 mL each were collected at 8 am, and 30, 60, 150 and 300 minutes thereafter. Plasma concentrations of betahistine and its metabolite 2-PAA were determined by high-performance liquidy chromatography.

[2] = both, beagle, dog, in vivo, 1 h
Procedure: The safety and pharmacokinetic profile of intranasal betahistine was first evaluated in a single dose toxicology study in male and female beagle dogs (14-21 months of age, weight 8.2-11.8 kg). Both the vehicle and test article were delivered in a single dose via a nasal spray pump (Aptar Classic Line) with a delivery volume of 100 μL into both nostrils at total dose levels of 0 (vehicle), 4, 20 or 80 mg of betahistine dihydrochloride. Each treatment group was made up of 1 dog/sex.
Plasma concentrations were measured with liquid chromatographic tandem mass spectrometry (LC-MS/MS; SCIEX API 5000 for betahistine and SCIEX API 4000 for 2-pyridylacetic acid (2-PAA)) with a validated method. Betahistine-^13CD3 dihydrochloride and 2-PAA-D4 hydrochloride served as internal standards. The standard calibration range—using a plasma sample volume of 0.05 mL—for betahistine was 0.05 to 50 ng/mL and for 2-PAA it was 1 to 1000 ng/mL. The limit of quantitation was 0.05 ng/mL for betahistine and 1.0 ng/mL for 2-PAA.
In case of betahistine, the method involved a liquid-liquid extraction; in case of 2-PAA it involved protein precipitation. For betahistine, plasma samples were extracted under basic conditions with an organic solvent; the organic phase was dried and reconstituted in reconstitution solvent. Approximately 0.1 mL of the aqueous layer was transferred into polypropylene vials for LC-MS/MS analysis. For 2-PAA, plasma samples were precipitated with a mixture of organic solvents, supernatant was diluted and 0.12 mL was transferred into polypropylene vials for LC-MS/MS analysis. Sample analysis was conducted using reversed phase chromatography.

[3] = cited from earlier work

Question: Which “bioavailability with intranasal administration higher than with oral administration” value [1] does the source give for `CNCCc1ccccn1` [betahistine] here?
Answer: 20-40 times

Question: And the “relative bioavailability fold factor” value ([1]; 40 mg intranasal vs. 48 mg per os)?
Answer: 41.1 ×

Question: What about the “relative bioavailability of oral vs. intranasal” value ([1]; Barak et al. oral AUC vs Example 3 intranasal AUC) of the same compound?
Answer: approximately 2.4%

Question: And the “Rel. Bioavail.” value ([1]; intranasal 5 mg relative to oral 48 mg (Barak et al.))?
Answer: 19.9

Question: What about the “Rel. Bioavail.” value ([1]; intranasal 10 mg relative to oral 48 mg (Barak et al.)) of the same compound?
Answer: 24.2

Question: What about the “Rel. Bioavail.” value ([1]; intranasal 20 mg relative to oral 48 mg (Barak et al.)) of the same compound?
Answer: 37.0

Question: And the “Rel. Bioavail.” value ([1]; intranasal 40 mg relative to oral 48 mg (Barak et al.))?
Answer: 41.1

Question: And the “decline of plasma concentration” value [2]?
Answer: more than 90%

Question: And the plasma half-life ([3]; betahistine, humans)?
Answer: 3 to 4 h

Question: What about the Cmax ([3]; human, oral betahistine 24 mg, Chen et al.) of the same compound?
Answer: < 0.5 ng/mL

Question: And the absolute bioavailability ([3]; orally administered betahistine, estimated (SmPC))?
Answer: around 1%
